Data published in ChEMBL document CHEMBL5338708, “Bis-chalcone polyphenols with potential preventive and therapeutic effects on PD: Design, synthesis and in vitro disaggregation activity against α-synuclein oligomers and fibrils” (Eur J Med Chem, 2022).

test system: not listed separately; test: Apparent permeability across basolateral to apical side in MDCKII-MDR1 cells at 10 uM by LC-MS/MS analysis; assay type: ADME, cell-based, Canis lupus familiaris; conditions: dog, MDCK-MDR1

Row | SMILES | Papp B→A at 10 µM
1 | O=C(/C=C/c1ccc(/C=C/C(=O)c2ccc(O)c(O)c2)cc1)c1ccc(O)c(O)c1 | 74.7 ×10⁻⁶ cm/s
2 | O=C(/C=C/c1ccc(/C=C/C(=O)c2ccc(O)c(F)c2)cc1)c1ccc(O)c(F)c1 | 95.6 ×10⁻⁶ cm/s
3 | COc1cc(/C=C/C(=O)c2cc(O)cc(O)c2)c(OC)cc1/C=C/C(=O)c1cc(O)cc(O)c1 | 93.2 ×10⁻⁶ cm/s
4 | COc1cc(/C=C/C(=O)c2ccc(O)c(O)c2)c(OC)cc1/C=C/C(=O)c1ccc(O)c(O)c1 | 96 ×10⁻⁶ cm/s
5 | CC(C)NCC(O)COc1cccc2ccccc12 (configuration not stated) [PROPRANOLOL] | 97 ×10⁻⁶ cm/s

test system: not listed separately; test: Efflux ratio of apparent permeability from basolateral to apical side over apical to basolateral side in […] cells at 10 uM by LC-MS/MS analysis; assay type: ADME, cell-based, Canis lupus familiaris; conditions: dog, MDCK-MDR1

Row | SMILES | efflux ratio at 10 µM
6 | CC(C)NCC(O)COc1cccc2ccccc12 (configuration not stated) [PROPRANOLOL] | 2.66

target: Alpha-synuclein (Homo sapiens, UniProt P37840); test: Inhibition of recombinant human Alpha-synuclein aggregation expressed in Escherichia coli incubated for 72 hrs by ThT fluorescence assay; conditions: not given

Row | SMILES | IC50
7 | O=C(O[C@@H]1Cc2c(O)cc(O)cc2O[C@H]1c1cc(O)c(O)c(O)c1)c1cc(O)c(O)c(O)c1 [GALLOCATECHIN GALLATE] | 1060 nM

test system: not listed separately; test: Apparent permeability across apical to basolateral side in MDCKII-MDR1 cells at 10 uM by LC-MS/MS analysis; assay type: ADME, cell-based, Canis lupus familiaris; conditions: dog, MDCK-MDR1

Row | SMILES | Papp A→B at 10 µM
8 | O=C(/C=C/c1ccc(/C=C/C(=O)c2ccc(O)c(O)c2)cc1)c1ccc(O)c(O)c1 | 16.2 ×10⁻⁶ cm/s
9 | O=C(/C=C/c1ccc(/C=C/C(=O)c2ccc(O)c(F)c2)cc1)c1ccc(O)c(F)c1 | 11.4 ×10⁻⁶ cm/s
10 | COc1cc(/C=C/C(=O)c2cc(O)cc(O)c2)c(OC)cc1/C=C/C(=O)c1cc(O)cc(O)c1 | 7.71 ×10⁻⁶ cm/s
11 | COc1cc(/C=C/C(=O)c2ccc(O)c(O)c2)c(OC)cc1/C=C/C(=O)c1ccc(O)c(O)c1 | 13.5 ×10⁻⁶ cm/s
12 | CC(C)NCC(O)COc1cccc2ccccc12 (configuration not stated) [PROPRANOLOL] | 36.5 ×10⁻⁶ cm/s
